Laboratory results taken from patent US6596742B1, “Substituted 3-phenyl-5-alkoxy-1,3,4-oxadiazol-2-ones, their preparation and their use in medicaments” (Aventis Pharma Deutschland GmbH, priority 1999, dated 2003).

Key:
[1] = biological target: T1, hormone-sensitive lipase HSL (Rattus norvegicus, UniProt P15304); experiment: HSL enzyme test system ([3H]trioleoylglycerol hydrolysis); format: biochemical; details: partially purified HSL from rat fat cells; [3H]trioleoylglycerol substrate; 37° C., 30 min
T1 construct: Isolated rat fat cells are obtained from epididymal fatty tissue from untreated male rats; from tissue; host or cells: fat cells from epididymal fatty tissue of male Wistar rats
T1 sequence (P15304 301-1068 limits assumed): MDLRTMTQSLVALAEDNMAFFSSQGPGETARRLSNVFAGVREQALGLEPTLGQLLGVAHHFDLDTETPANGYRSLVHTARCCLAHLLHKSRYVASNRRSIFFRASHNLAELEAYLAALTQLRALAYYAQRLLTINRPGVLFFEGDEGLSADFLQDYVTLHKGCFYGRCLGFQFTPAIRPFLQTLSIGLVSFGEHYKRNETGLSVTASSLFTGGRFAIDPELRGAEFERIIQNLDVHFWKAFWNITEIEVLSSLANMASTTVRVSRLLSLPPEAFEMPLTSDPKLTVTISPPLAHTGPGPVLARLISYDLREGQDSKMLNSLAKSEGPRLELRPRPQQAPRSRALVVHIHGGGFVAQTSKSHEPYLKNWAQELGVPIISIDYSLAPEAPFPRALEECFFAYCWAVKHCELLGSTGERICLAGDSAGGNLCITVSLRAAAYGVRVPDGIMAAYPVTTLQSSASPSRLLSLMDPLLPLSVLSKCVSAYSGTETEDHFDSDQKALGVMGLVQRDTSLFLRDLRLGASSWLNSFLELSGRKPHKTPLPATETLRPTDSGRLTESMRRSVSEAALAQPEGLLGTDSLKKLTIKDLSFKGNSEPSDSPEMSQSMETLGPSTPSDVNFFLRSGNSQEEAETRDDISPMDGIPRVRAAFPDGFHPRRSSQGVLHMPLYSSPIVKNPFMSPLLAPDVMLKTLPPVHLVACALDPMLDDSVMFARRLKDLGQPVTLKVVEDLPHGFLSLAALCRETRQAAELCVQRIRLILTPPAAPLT
Source text: The activity of the compounds of the formula 1 according to the invention was examined using the following enzyme test system:
Isolated rat fat cells are obtained from epididymal fatty tissue from untreated male rats (Wistar, 220-250 g) by collagenase treatment according to published processes (e.g. S. Nilsson et al., Anal. Biochem. 158, 1986, 399-407; G. Fredrikson et al., J. Biol. Chem. 256, 1981, 6311-6320; H. Tornquist et al., J. Biol. Chem. 251, 1976, 813-819). The fat cells from 10 rats are washed three times by flotation with 50 ml each of homogenization buffer ([…] tris/HCI, pH 7.4, 0.25 M sucrose, 1 mM EDTA, 1 mM DTT, 10 μg/ml of leupeptin, 10 μg/ml of antipain, 20 μg/ml of pepstatin) and finally taken up in 10 ml of homogenization buffer. The fat cells are homogenized in a Teflon-in-glass homogenizer (Braun-Melsungen) by 10 strokes at 1500 rpm and 15° C. The homogenizate is centrifuged (Sorvall SM24 tubes, 5000 rpm, 10 min, 4° C). The bottom layer between the overlying fatty layer and the pellet is removed and the centrifugation is repeated. The bottom layer resulting from this is centrifuged again (Sorvall SM24 tubes, 20,000 rpm, 45 min, 4° C). […] After incubation for 60 min at 4° C. (shake at intervals of 15 min), the batch is centrifuged (Sorvall SM24 tubes, 3000 rpm, 10 min, 4° C.). The supernatant is brought to pH 5.2 by addition of glacial acetic acid and incubated at 4° C. for 30 min. The precipitates are collected by centrifugation (Sorvall SS34, 12,000 rpm, 10 min, 4° C.) and suspended in 2.5 ml of 20 mM tris/HCl, pH 7.0, 1 mM EDTA, 65 mM NaCl, 13% sucrose, 1 mM DTT, 10 μg/ml of leupeptin/pepstatin/antipain. The suspension is dialyzed overnight at 4° C. against 25 mM tris/HCl, pH 7.4, 50% glycerol, 1 mM DTT, 10 μg/ml of leupeptin, pepstatin, antipain and then applied to a hydroxylapatite column (0.1 g per 1 ml of suspension, equilibrated with 10 mM potassium phosphate, pH 7.0, 30% glycerol, 1 mM DTT). The column is washed with four volumes of equilibration buffer at a flow rate of 20 to 30 ml/h. The HSL is eluted with a volume of equilibration buffer which contains 0.5 M potassium phosphate, then dialyzed (see above) and concentrated 5 to 10 times by ultrafiltration (Amicon Diaflo PM 10 filter) at 4° C. The partially purified HSL can be stored at −70° C. for 4 to 6 weeks.
For the preparation of the substrate, 25-50 μCi of [^3H]trioleoylglycerol (in toluene), 6.8 μMol of unlabeled trioleoylglycerol and 0.6 mg of phospholipids (phosphatidylcholine/phosphatidylinositol 3:1 w/v) are mixed, dried over N2 and then taken up in 2 ml of 0.1 M KPi (pH 7.0) by ultrasonic treatment (Branson 250, microtip, setting 1-2, 2×1 min at a 1 min interval). After addition of 1 ml KPi and fresh ultrasonic treatment (4×30 sec on ice at 30 sec intervals), 1 ml of 20% BSA (in KPi) is added (final concentration of trioleoylglycerol 1.7 mM). For the reaction, 100 μl of substrate solution are pipetted into 100 μl of HSL solution (HSL prepared as above, diluted in 20 mM KPi, pH 7.0, 1 mM EDTA, 1 mM DTT, 0.02% BSA, 20 μg/ml of pepstatin, 10 μg/ml of leupeptin) and incubated at 37° C. for 30 min. After addition of 3.25 ml of methanol/chloroform/heptane (10:9:7) and of 1.05 ml of 0.1 M K2CO3, 0.1 M boric acid (pH 10.5), the batch is well mixed and finally centrifuged (800×g, 20 min). After phase separation, one equivalent of the upper phase (1 ml) is taken and the radioactivity is determined by liquid scintillation measurement.
Substances are customarily tested in four independent batches. The inhibition of the enzymatic activity of the HSL by a test substance is determined by comparison with an uninhibited control reaction. The IC50 value is calculated by means of an inhibition curve using at least 10 concentrations of the test substance. For the analysis of the data, the software package GRAPHIT, Elsevier-BIOSOFT is used.

SMILES | IC50 [1] [µM] | melting point [°C]
CCCCOc1nn(-c2ccc(OC(F)(F)F)cc2)c(=O)o1 [Example 13, 3-(4-Trifluoromethoxyphenyl)-5-butoxy-1,3,4-oxadiazol-2-one] | 10 | –
O=c1oc(OCc2ccccc2)nn1-c1ccc(OC(F)(F)F)cc1 [Example 14, 3-(4-Trifluoromethoxyphenyl)-5-benzyloxy-1,3,4-oxad iazol-2-one] | 50 | –
COc1nn(-c2ccc(S(=O)(=O)NC3CC(C)CC(C)(C)C3)cc2)c(=O)o1 (stereo not shown) [Example 15, 3-(4-(3,3,5-Trimethylcyclohexylaminosulfonyl)phenyl)-5-methoxy-1,3,4-oxadiazol-2-one] | 2 | –
COc1nn(-c2cccc(OCc3ccccc3)c2)c(=O)o1 [Example 17, 3-(3-Benzyloxyphenyl)-5-methoxy-1,3,4-oxadiazol-2-one] | 2 | –
CCOc1nn(-c2cccc(OC(F)(F)F)c2)c(=O)o1 [Example 19, 3-(3-Trifluoromethoxyphenyl)-5-ethoxy-1,3,4-oxadiazol-2-one] | 5 | –
CCOc1nn(-c2cccc(Oc3ccccc3)c2)c(=O)o1 [Example 34, 3-(3-Phenoxyphenyl)-5-ethoxy-1,3,4-oxadiazol-2-one] | 3 | –
CC(C)Oc1nn(-c2cccc(Oc3ccccc3)c2)c(=O)o1 [Example 35, 3-(3-Phenoxyphenyl)-5-isopropoxy-1,3,4-oxadiazol-2-one] | 3 | 58
COc1nn(-c2ccc(Oc3ccccc3)cc2)c(=O)o1 [Example 36, 3-(4-Phenoxyphenyl)-5-methoxy-1,3,4-oxadiazol-2-one] | 2 | –
COc1nn(-c2cccc(OC3CC(C)(C)CC(C)(C)C3)c2)c(=O)o1 [Example 38, 3-(3-(3,3,5,5-Tetramethylcyclohexyloxy)phenyl)-5-methoxy-1,3,4-oxadiazol-2-one] | < 1 | –
COc1nn(-c2ccc(-c3ccccc3)cc2)c(=O)o1 [Example 39, 3-(4-Phenylphenyl)-5-methoxy-1,3,4-oxadiazol-2-one] | 60 | –

Results, then the compound that gave them:

IC50 [1] [µM] | melting point [°C] | SMILES
15 | – | CCOc1nn(-c2ccc(S(=O)(=O)N3CCOCC3)cc2)c(=O)o1 [Example 8, 3-(4-Morpholinosulfonylphenyl)-5-ethoxy-1,3,4-oxadiazol-2-one]
6 | – | COc1nn(-c2ccc(OC(F)(F)F)cc2)c(=O)o1 [Example 10, 3-(4-Trifluoromethoxyphenyl)-5-methoxy-1,3,4-oxad iazol-2-one]
10 | – | CCOc1nn(-c2ccc(OC(F)(F)F)cc2)c(=O)o1 [Example 11, 3-(4-Trifluoromethoxyphenyl)-5-ethoxy-1,3,4-oxadiazol-2-one]
10 | – | CC(C)Oc1nn(-c2ccc(OC(F)(F)F)cc2)c(=O)o1 [Example 12, 3-(4-Trifluoromethoxyphenyl)-5-isopropoxy-1,3,4-oxadiazol-2-one]
2 | – | CCOc1nn(-c2ccc(OC3CC(C)(C)CC(C)(C)C3)cc2)c(=O)o1 [Example 16, 3-(4-(3,3,5,5-Tetramethylcyclohexyloxy)phenyl)-5-ethoxy-1,3,4-oxadiazol-2-one]
< 1 | – | CCOc1nn(-c2cccc(OCc3ccccc3)c2)c(=O)o1 [Example 18, 3-(3-Benzyloxyphenyl)-5-ethoxy-1,3,4-oxadiazol-2-one]
4 | – | COc1nn(-c2cccc(Oc3ccccc3)c2)c(=O)o1 [Example 33, 3-(3-Phenoxyphenyl)-5-methoxy-1,3,4-oxadiazol-2-one]
3 | – | COc1nn(-c2ccc(C3CCCCC3)cc2)c(=O)o1 [Example 37, 3-(4-Cyclohexylphenyl)-5-methoxy-1,3,4-oxadiazol-2-one]
